Source: ChEMBL document CHEMBL5104196, “Discovery of Novel, Potent, and Selective Small-Molecule Menin-Mixed Lineage Leukemia Interaction Inhibitors through Attempting Introduction of Hydrophilic Groups” (J Med Chem, 2022)
The source made the active and inactive calls. The rule behind the calls is not given here.

How the values were obtained:
[1] = target: Menin/Histone-lysine N-methyltransferase MLL (Homo sapiens, UniProt O00255); test: Inhibition of Menin/fluorescein labeled MLL(4 to 43 residues) (unknown origin) protein protein interaction incubated for 1 hr by fluorescence polarization-based competitive binding assay
Sequence of Menin/Histone-lysine N-methyltransferase MLL (O00255 whole entry, the tested form may be a part): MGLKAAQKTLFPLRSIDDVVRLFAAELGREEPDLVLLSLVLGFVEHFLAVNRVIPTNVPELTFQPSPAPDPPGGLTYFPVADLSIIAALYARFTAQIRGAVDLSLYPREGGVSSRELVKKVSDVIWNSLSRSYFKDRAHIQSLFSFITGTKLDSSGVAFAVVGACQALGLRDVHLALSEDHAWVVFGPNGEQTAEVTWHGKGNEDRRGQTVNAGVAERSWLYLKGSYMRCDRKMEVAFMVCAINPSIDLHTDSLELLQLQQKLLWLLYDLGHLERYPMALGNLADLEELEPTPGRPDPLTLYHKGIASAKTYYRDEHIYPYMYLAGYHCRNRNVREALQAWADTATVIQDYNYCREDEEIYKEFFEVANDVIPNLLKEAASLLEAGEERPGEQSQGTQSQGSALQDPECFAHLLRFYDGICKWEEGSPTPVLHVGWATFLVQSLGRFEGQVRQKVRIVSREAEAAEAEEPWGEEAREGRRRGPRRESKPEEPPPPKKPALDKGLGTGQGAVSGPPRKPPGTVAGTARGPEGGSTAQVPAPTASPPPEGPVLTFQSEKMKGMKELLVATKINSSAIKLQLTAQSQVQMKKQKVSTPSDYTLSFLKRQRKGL
Sequence of Menin/Histone-lysine N-methyltransferase MLL (Q03164 1-2718 partner limits assumed): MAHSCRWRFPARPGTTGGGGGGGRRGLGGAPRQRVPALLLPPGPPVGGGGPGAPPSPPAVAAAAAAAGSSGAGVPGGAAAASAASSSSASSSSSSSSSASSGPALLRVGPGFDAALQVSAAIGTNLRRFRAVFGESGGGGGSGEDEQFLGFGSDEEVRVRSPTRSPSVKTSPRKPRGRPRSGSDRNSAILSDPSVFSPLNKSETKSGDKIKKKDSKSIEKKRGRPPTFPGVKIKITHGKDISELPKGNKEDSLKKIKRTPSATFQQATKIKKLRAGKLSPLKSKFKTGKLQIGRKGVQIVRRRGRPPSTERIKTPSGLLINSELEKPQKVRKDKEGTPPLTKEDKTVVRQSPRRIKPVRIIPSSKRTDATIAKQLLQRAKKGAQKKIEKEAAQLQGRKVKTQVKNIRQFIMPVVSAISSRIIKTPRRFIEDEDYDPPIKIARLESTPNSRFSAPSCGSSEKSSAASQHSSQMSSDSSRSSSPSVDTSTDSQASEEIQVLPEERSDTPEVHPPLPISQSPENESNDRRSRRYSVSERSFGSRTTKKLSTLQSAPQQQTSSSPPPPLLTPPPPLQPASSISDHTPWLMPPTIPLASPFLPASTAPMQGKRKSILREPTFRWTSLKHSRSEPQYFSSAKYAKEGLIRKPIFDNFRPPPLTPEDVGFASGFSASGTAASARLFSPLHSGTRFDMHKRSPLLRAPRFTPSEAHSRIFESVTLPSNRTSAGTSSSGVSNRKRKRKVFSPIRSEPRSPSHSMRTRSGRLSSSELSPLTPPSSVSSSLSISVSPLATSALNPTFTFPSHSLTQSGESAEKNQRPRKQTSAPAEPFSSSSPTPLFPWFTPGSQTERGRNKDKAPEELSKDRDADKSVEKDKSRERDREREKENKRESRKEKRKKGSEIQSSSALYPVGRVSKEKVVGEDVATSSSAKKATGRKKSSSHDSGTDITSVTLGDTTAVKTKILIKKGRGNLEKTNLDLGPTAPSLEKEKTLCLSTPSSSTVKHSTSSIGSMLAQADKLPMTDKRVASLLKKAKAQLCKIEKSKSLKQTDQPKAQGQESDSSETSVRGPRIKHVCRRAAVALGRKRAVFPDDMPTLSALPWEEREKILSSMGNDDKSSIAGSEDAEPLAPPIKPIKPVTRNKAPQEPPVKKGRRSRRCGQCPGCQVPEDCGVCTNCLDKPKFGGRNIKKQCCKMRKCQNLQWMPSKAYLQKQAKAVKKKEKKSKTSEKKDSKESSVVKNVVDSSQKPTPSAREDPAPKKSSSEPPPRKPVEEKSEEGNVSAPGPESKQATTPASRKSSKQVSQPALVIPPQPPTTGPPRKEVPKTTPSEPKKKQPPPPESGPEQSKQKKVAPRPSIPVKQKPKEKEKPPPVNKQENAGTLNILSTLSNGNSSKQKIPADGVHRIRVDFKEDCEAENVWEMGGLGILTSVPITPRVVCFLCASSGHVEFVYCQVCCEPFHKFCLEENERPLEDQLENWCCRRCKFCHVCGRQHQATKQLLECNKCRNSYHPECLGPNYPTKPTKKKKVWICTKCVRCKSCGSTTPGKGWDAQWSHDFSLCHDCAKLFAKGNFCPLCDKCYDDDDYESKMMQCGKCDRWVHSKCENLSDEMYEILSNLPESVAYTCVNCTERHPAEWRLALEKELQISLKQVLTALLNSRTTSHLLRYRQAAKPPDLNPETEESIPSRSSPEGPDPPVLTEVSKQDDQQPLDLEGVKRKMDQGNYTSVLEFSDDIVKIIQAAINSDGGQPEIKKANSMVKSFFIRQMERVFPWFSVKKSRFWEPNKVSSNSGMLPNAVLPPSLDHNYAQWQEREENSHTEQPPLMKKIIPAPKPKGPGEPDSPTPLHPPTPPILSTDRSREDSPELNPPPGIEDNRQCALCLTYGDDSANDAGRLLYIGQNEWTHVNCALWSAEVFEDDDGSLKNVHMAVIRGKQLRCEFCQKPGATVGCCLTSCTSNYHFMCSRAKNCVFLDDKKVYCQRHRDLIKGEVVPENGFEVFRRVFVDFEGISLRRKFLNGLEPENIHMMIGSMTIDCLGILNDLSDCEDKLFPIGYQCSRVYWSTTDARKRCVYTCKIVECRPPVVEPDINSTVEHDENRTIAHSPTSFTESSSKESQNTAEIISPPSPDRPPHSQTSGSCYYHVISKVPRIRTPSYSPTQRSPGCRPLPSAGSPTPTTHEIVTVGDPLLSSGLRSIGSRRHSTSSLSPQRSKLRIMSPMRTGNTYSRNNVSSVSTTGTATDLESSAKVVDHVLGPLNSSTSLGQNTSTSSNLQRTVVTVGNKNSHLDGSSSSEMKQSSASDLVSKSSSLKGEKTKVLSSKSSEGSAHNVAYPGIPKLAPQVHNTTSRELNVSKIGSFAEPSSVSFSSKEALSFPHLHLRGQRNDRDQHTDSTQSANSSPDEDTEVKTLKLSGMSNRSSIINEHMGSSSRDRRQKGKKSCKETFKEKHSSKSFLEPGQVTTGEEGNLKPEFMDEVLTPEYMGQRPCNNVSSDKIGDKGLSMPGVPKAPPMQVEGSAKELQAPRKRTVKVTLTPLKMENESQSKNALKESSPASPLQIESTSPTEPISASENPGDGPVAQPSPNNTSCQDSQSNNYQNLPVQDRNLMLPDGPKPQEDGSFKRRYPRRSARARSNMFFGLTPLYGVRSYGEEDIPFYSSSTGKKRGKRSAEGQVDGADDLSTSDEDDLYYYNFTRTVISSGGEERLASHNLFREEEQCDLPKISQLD
Sequence of Menin/Histone-lysine N-methyltransferase MLL (Q03164 2719-3969 partner limits assumed): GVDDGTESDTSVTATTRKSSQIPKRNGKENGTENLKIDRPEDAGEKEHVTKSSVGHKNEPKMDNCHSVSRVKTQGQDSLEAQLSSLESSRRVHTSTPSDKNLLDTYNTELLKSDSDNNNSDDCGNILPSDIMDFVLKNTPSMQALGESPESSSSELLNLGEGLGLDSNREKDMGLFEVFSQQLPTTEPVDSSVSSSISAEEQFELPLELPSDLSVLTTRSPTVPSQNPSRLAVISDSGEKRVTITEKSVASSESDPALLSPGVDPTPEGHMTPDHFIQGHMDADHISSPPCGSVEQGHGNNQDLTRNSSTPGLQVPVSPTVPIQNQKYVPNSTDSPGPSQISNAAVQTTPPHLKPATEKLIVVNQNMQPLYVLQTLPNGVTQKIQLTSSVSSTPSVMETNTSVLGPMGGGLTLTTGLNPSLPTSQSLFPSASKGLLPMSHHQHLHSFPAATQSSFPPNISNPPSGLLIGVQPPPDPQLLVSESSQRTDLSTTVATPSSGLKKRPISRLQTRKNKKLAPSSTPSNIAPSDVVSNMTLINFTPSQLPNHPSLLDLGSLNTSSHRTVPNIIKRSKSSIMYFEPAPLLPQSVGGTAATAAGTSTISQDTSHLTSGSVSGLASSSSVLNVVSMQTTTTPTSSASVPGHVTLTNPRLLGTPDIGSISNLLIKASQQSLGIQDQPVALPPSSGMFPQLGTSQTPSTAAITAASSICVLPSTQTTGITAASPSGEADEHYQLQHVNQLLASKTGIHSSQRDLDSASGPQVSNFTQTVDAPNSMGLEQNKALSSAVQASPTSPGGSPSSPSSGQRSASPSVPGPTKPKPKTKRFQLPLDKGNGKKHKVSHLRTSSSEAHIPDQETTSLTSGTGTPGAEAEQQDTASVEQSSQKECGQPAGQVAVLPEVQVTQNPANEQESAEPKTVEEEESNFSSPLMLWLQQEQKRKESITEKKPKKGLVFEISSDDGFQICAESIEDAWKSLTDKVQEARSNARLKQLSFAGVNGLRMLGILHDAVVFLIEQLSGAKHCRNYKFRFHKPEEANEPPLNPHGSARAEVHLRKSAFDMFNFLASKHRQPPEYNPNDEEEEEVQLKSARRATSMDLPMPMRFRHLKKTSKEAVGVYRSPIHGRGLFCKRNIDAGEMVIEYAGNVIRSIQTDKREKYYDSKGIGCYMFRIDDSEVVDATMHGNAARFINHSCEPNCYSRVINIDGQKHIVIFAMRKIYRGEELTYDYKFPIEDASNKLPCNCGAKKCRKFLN

[2] = test system: MV4-11; test: Antiproliferative activity against human MV4-11 cells harboring MLL-AF4 assessed as cell growth inhibition measured for 72 hrs by MTT assay; format: functional, cell-based; details: MV4-11, 72 h
[3] = test system: HL-60; test: Antiproliferative activity against human […] assessed as cell growth inhibition measured for 72 hrs by MTT assay; format: functional, cell-based; details: HL-60, 72 h
[4] = test system: MV4-11; test: Antiproliferative activity against human MV4-11 cells assessed as reduction in cell viability measured for 3 days by cell counting assay; format: functional, cell-based; details: MV4-11, 72 h
[5] = test system: MV4-11; test: Antiproliferative activity against human MV4-11 cells assessed as reduction in cell viability measured for 3 days followed by replacement with fresh medium of compound and measured after 72 hrs by cell counting assay; format: functional, cell-based; details: MV4-11, 72 h
[6] = test system: MV4-11; test: Downregulation of HOXA9 gene in human MV4-11 cells incubated for 24 hrs by real-time PCR analysis; format: functional, cell-based; details: dose 0.1-10 µM, DDE = dose-dependent effect
[7] = test system: MV4-11; test: Downregulation of MEISI gene in human MV4-11 cells incubated for 24 hrs by real-time PCR analysis; format: functional, cell-based; details: dose 0.1-10 µM, DDE = dose-dependent effect
[8] = species: Homo sapiens; test: Inhibition of tyrosine kinase (unknown origin) at 1 uM in presence of ATP at Km concentration by Mobility shift assay relative to control
[9] = species: Homo sapiens; test: Inhibition of TKL (unknown origin) at 1 uM in presence of ATP at Km concentration by Mobility shift assay relative to control
[10] = species: Homo sapiens; test: Inhibition of STE (unknown origin) at 1 uM in presence of ATP at Km concentration by Mobility shift assay relative to control
[11] = test system: MV4-11; test: Induction of cell differentiation in human MV4-11 cells assessed as increase in CD11b expression at 10 uM measured after 7 days by flow cytometric analysis; format: functional, cell-based; details: time 7.0 day
[12] = test system: MV4-11; test: Induction of apoptosis in human MV4-11 cells incubated for 24 hrs by annexinV/PI staining based flow cytometry analysis; format: functional, cell-based; details: dose 0.1-10 µM, DDE = dose-dependent effect
[13] = Metabolic stability in CD-1 mouse liver microsome assessed as compound remaining measured after 60 min by UPLC-MS/MS analysis; format: ADME; details: liver microsomes, read-out: Stability
[14] = Metabolic stability in Sprague-Dawley rat liver microsome assessed as compound remaining measured after 60 min by UPLC-MS/MS analysis; format: ADME; details: liver microsomes, read-out: Stability
[15] = Metabolic stability in Beagle dog liver microsome assessed as compound remaining measured after 60 min by UPLC-MS/MS analysis; format: ADME, Canis lupus familiaris; details: liver microsomes, read-out: Stability
[16] = Metabolic stability in Crab eating monkey liver microsome assessed as compound remaining measured after 60 min by UPLC-MS/MS analysis; format: ADME, Macaca fascicularis; details: cynomolgus monkey, liver microsomes, read-out: Stability
[17] = Metabolic stability in human liver microsome assessed as compound remaining measured after 60 min by UPLC-MS/MS analysis; format: ADME; details: liver microsomes, read-out: Stability
[18] = Metabolic stability in CD-1 mouse liver microsome assessed as half life measured upto 60 min by UPLC-MS/MS analysis; format: ADME; details: liver microsomes
[19] = Metabolic stability in Sprague-Dawley rat liver microsome assessed as half life measured upto 60 min by UPLC-MS/MS analysis; format: ADME; details: liver microsomes
[20] = Metabolic stability in Beagle dog liver microsome assessed as half life measured upto 60 min by UPLC-MS/MS analysis; format: ADME, Canis lupus familiaris; details: liver microsomes
[21] = Metabolic stability in Crab eating monkey liver microsome assessed as half life measured upto 60 min by UPLC-MS/MS analysis; format: ADME, Macaca fascicularis; details: cynomolgus monkey, liver microsomes
[22] = Metabolic stability in human liver microsome assessed as half life measured upto 60 min by UPLC-MS/MS analysis; format: ADME; details: liver microsomes
[23] = Metabolic stability in Sprague-Dawley rat liver microsome assessed as intrinsic clearance measured upto 60 min by UPLC-MS/MS analysis; format: ADME; details: microsomes, 1 h
[24] = Metabolic stability in Crab eating monkey liver microsome assessed as intrinsic clearance measured upto 60 min by UPLC-MS/MS analysis; format: ADME, Macaca fascicularis; details: cynomolgus monkey, microsomes, 1 h
[25] = Metabolic stability in human liver microsome assessed as intrinsic clearance measured upto 60 min by UPLC-MS/MS analysis; format: ADME; details: microsomes, 1 h
[26] = Metabolic stability in CD-1 mouse liver assessed as intrinsic clearance measured upto 60 min by UPLC-MS/MS analysis; format: ADME, tissue-based; details: read-out: CLH
[27] = Metabolic stability in Beagle dog liver assessed as intrinsic clearance measured upto 60 min by UPLC-MS/MS analysis; format: ADME, tissue-based, Canis lupus familiaris; details: read-out: CLH
[28] = Metabolic stability in Crab eating monkey liver assessed as intrinsic clearance measured upto 60 min by UPLC-MS/MS analysis; format: ADME, tissue-based, Macaca fascicularis; details: cynomolgus monkey, read-out: CLH
[29] = Metabolic stability in human liver assessed as intrinsic clearance measured upto 60 min by UPLC-MS/MS analysis; format: ADME, tissue-based; details: read-out: CLH
[30] = Tmax in Sprague-Dawley rat at 15 mg/kg, po; format: ADME, organism-based; details: in vivo
[31] = Half life in Sprague-Dawley rat at 5 mg/kg, iv; format: ADME, organism-based; details: in vivo
[32] = Half life in Sprague-Dawley rat at 15 mg/kg, po; format: ADME, organism-based; details: in vivo
[33] = MRT in Sprague-Dawley rat at 5 mg/kg, iv; format: ADME, organism-based; details: in vivo
[34] = MRT in Sprague-Dawley rat at 15 mg/kg, po; format: ADME, organism-based; details: in vivo
[35] = Cmax in Sprague-Dawley rat at 5 mg/kg, iv; format: ADME, organism-based; set-up: dose 5 mg/kg, route iv; details: in vivo
[36] = AUC (0 to t) in Sprague-Dawley rat at 5 mg/kg, iv; format: ADME, organism-based; set-up: dose 5 mg/kg, route iv; details: in vivo
[37] = AUC (0 to infinity) in Sprague-Dawley rat at 5 mg/kg, iv; format: ADME, organism-based; set-up: time infinity, dose 5 mg/kg, route iv; details: in vivo
[38] = AUC (0 to infinity) in Sprague-Dawley rat at 15 mg/kg, po; format: ADME, organism-based; set-up: time infinity, dose 15 mg/kg, route po; details: in vivo
[39] = Total clearance in Sprague-Dawley rat at 5 mg/kg, iv; format: ADME, organism-based; details: in vivo
[40] = Total clearance in Sprague-Dawley rat at 15 mg/kg, po; format: ADME, organism-based; details: in vivo
[41] = Volume of distribution at steady state in Sprague-Dawley rat at 5 mg/kg, iv; format: ADME, organism-based; details: in vivo
[42] = Oral bioavailability in Sprague-Dawley rat at 15 mg/kg; format: ADME, organism-based; details: in vivo
[43] = test system: MV4-11; test: Antitumor activity against human MV4-11 cells xenografted in BALB/c nude mouse assessed as tumor growth inhibition at 6 mg/kg, po administered every second day for 16 days by calipers analysis; format: functional; details: MV4-11, 384 h, time 16 day, read-out: TGI
[44] = test system: MV4-11; test: Antitumor activity against human MV4-11 cells xenografted in BALB/c nude mouse assessed as tumor growth inhibition at 30 mg/kg, po administered every second day for 16 days by calipers analysis; format: functional; details: MV4-11, 384 h, time 16 day, read-out: TGI
[45] = test system: MV4-11; test: Suppression of HOXA9 gene transcription in human MV4-11 cells xenografted in BALB/c nude mouse at 15 mg/kg, iv measured at 24 hrs by RT-PCR analysis; format: functional, organism-based
[46] = test system: MV4-11; test: Suppression of MEIS1 gene transcription in human MV4-11 cells xenografted in BALB/c nude mouse at 15 mg/kg, iv measured after 24 hrs by RT-PCR analysis; format: functional, organism-based

CN(C)CCOc1ccc2ncnc(NC3CCN(CC4CN(c5ccc(S(=O)(=O)C6CC6)cc5)C4)CC3)c2n1
IC50 [1]: 7 nM
IC50 [2]: 300 nM
IC50 [3]: > 10000 nM
IC50 [4]: 360 nM
IC50 [5]: 300 nM
Activity [6]: Dde
Activity [7]: Dde
inhibition [8]: < 25%
inhibition [9]: < 25%
inhibition [10]: < 25%
Activity [11]: Active
Activity [12]: Dde
remaining at 1 h [13]: 82%
remaining at 1 h [14]: 77%
remaining at 1 h [15]: 65%
remaining at 1 h [16]: 52%
remaining at 1 h [17]: 79%
half-life [18]: 3.38 h
half-life [19]: 2.75 h
half-life [20]: 1.7 h
half-life [21]: 1.08 h
half-life [22]: 3.2 h
CLint [23]: 9.7 µL/min/mg
CLint [24]: 22 µL/min/mg
CLint [25]: 8.4 µL/min/mg
CLint scaled [26]: 28.2 mL/min/kg
CLint scaled [27]: 20 mL/min/kg
CLint scaled [28]: 31.7 mL/min/kg
CLint scaled [29]: 8 mL/min/kg
Tmax [30]: 7.3 h
half-life [31]: 17.5 h
half-life [32]: 15.5 h
MRT [33]: 7.1 h
MRT [34]: 12 h
Cmax [35]: 1190 ng/mL
AUC(0-t) [36]: 1700 ng·h/mL
AUC(0-inf) [37]: 2500 ng·h/mL
AUC(0-inf) [38]: 1480 ng·h/mL
CL [39]: 34.27 mL/min/kg
CL/F [40]: 179 mL/min/kg
Vdss [41]: 49.3 L/kg
bioavailability [42]: 16.9%
inhibition in vivo at 6 mg/kg [43]: 64%
inhibition in vivo at 30 mg/kg [44]: 97%
Activity [45]: Active
Activity [46]: Active
